Reference: US5478808A, “2-amino-6,7-dihydroxy-4-thiaheptanoic acid derivatives, production and use thereof” (Takeda Chemical Industries, Ltd., priority 1992, dated 1995)

Tests used:
[1] = test system: bone marrow cells of BALB/c mice; assay: Enhancing proliferation of bone marrow cells of mice (MTT reduction method); type: cell-based, mouse; conditions: concentration giving 1.3 or more times the proliferation of the group without test compound; 3 days incubation
Experimental: To an RPMI 1640 culture medium [Bio-Wittaker Inc. (hereinafter abbreviated as BW), USA] containing 2×10^6 /ml of bone marrow cells of BALB/c mice, 2 mM of L-glutamine, 20 ug/ml of gentamicin (Flow Laboratories, Inc., Scotland), 10% fetal calf serum (BW, USA) was added a test compound in an adequate concentration, which was incubated at 37° C. for 3 days in 5% carbon dioxide in air followed by determination of proliferation of the bone marrow cells by the MTT reduction method [Tada et al., Journal of Immunological Methods, Vol. 93, p.157, 1986].

[2] = test system: mouse; assay: Toxicity test, intraperitoneal; type: in vivo; conditions: 100 mg/kg
[3] = test system: peripheral blood leukocytes of CDF1/Crj mice; assay: Enhancing the number of leukocytes in cyclophosphamide-treated mice; type: in vivo, mouse; conditions: cyclophosphamide 150 mg/kg p.o., then compound 0.063 mg/kg/day s.c. for 5 days; mice without cyclophosphamide = 100%
Experimental: Six week old female CDF1/Crj mice (5 animals/group) were subjected to the experiment. […] From the next day, each animal was administered subcutaneously with the compound suspended in 5% glucose at the following dosages for five days once a day. On the next day after completion of the administration, about 100 μl of peripheral blood was collected from orbital vein using an EDTA-treated glass capillary. Then, the number of lekocytes was counted using a automatic cell analyzer (Sysmex K-2000, Toa Medical Electronics, Japan)

Row | Substance | Minimal Effective Concentration (MEC) [1] [ng/mL] | Mortality [2] | Number of leukocytes [3] [%]
1 | (2R,6R)-2-amino-6,7-bis(PamO)-4-THT-NH(CH2)7 CO-Glu-OH hydrochloride [Compound 36] | < 0.156 | – | –
2 | (2S,6R)-2-amino-6,7-bis(PamO)-4-THT-Gly-Gly-Gly-Glu-Thr-Thr-OH [Compound 3] | – | No mouse administered intraperitoneally with Compound 3 at a dose of 100 mg/kg was found dead | –
3 | (2R,6R)-2-amino-6,7-bis(PamO)-4-THT-Gly-Gly-Gly-Glu-Thr-Thr-OH [Compound 2] | < 0.156 | – | 102
